Structures are written as SMILES. Like-named read-outs stand apart in the source and are kept apart here.

In assay [1] the test system is phosphorylated AKT Ser473 (pAKT S473), mTORC2 activity, PC3 cells. The experiment in a line: mTOR target engagement assay, immunofluorescent cell-based, pAKT S473 readout (mTORC2 activity). Particulars: Homo sapiens. A digest of the protocol:
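After blocking, cells were stained overnight at 4 °C with anti-pAKT S473 antibody, then a fluorescent secondary; inhibition was read as reduced fluorescence intensity.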

Assay [2] has as its system phosphorylated 4E-BP1 Thr37/46 (p4E-BP1 Thr37/46), mTORC1 activity, PC3 cells. Put plainly: mTOR target engagement assay, immunofluorescent cell-based, p4E-BP1 Thr37/46 readout (mTORC1 activity). Conditions: Homo sapiens, read-out: p4E-BP1 Thr37/46 IC50. A digest of the protocol: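 Cell-based immunofluorescence in PC3 cells: serially diluted compounds (0.25% DMSO, 5% FBS) applied for ninety minutes at 37° C before fixation and overnight 4° C staining of p4E-BP1 Thr37/46. Untreated DMSO wells set maximal phosphorylation; IC50 obtained by logistic fitting.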

Where [3] appears, read: PC-3, PC3 cells, compound treatment ninety minutes at 37° C.

As for `CS(=O)(=O)c1c([C@@H]2C[C@H]3CC[C@@H](C2)N3C(=O)c2nnc[nH]2)nc2c(-c3cn[nH]c3)cnn2c1N` [Compound 3.113, ((1R,3s,5S)-3-(7-amino-6-(methylsulfonyl)-3-(1H-pyrazol-4-yl)pyrazolo[1,5-a]pyrimidin-5-yl)-8-azabicyclo[3.2.1]octan-8-yl)(4H-1,2,4-triazol-3-yl)methanone], the IC50 is more than 10000 nM in assay [1] (PC-3, Table 3-1, PC3 cells) and 1000 to 10000 nM in assay [2] (PC-3, Table 3-1, PC3 cells).

Regarding `Nc1c(S(=O)(=O)C2CC2)c([C@@H]2C[C@H]3CC[C@@H](C2)N3C(=O)c2nnc[nH]2)nc2c(-c3ccc(-c4ccccc4)nc3)cnn12` [Compound 3.160, ((1R,3s,5S)-3-(7-amino-6-(cyclopropylsulfonyl)-3-(6-phenylpyridin-3-yl)pyrazolo[1,5-a]pyrimidin-5-yl)-8-azabicyclo[3.2.1]octan-8-yl)(4H-1,2,4-triazol-3-yl)methanone], the IC50 in assay [1] (PC-3, Table 3-1, PC3 cells) fell in the range of 1 to 100 nM; in assay [2] (PC-3, Table 3-1, PC3 cells), 100 to 1000 nM.

As to `Nc1c(C2CC2)c([C@@H]2C[C@H]3CC[C@@H](C2)N3C(=O)c2nnc[nH]2)nc2c(-c3ccc(-c4ccccc4)nc3)cnn12` [Compound 4.1, ((1R,3a,5S)-3-(7-amino-6-cyclopropyl-3-(6-phenylpyridin-3-yl)pyrazolo[1,5-a]pyrimidin-5-yl)-8-azabicyclo[3.2.1]octan-8-yl)(4H-1,2,4-triazol-3-yl)methanone], the IC50 in assay [1] (setting [3]) and in assay [2] (setting [3]) was 1 to 100 nM throughout.

Turning to `CC(=O)c1c([C@@H]2C[C@H]3CC[C@@H](C2)N3C(=O)C2CCCO2)nc2c(-c3ccc(-c4ncc[nH]4)nc3)cnn2c1N` (stereo partly drawn) [Compound 6.19, 1-(3-(6-(1H-imidazol-2-yl)pyridin-3-yl)-7-amino-5-((1R,3s,5S)-8-(tetrahydrofuran-2-carbonyl)-8-azabicyclo[3.2.1]octan-3-yl)pyrazolo[1,5-a]pyrimidin-6-yl)ethanone], the IC50 in assay [1] (PC-3, Table 6-1, PC3 cells) fell in the range of 1 to 100 nM; in assay [2] (PC-3, Table 6-1, PC3 cells) it was 100 to 1000 nM.

As for `CC(=O)Nc1nnc(C(=O)N2[C@@H]3CC[C@H]2C[C@H](c2nc4c(-c5ccc(-c6ccccc6)nc5)cnn4c(N)c2C2CC2)C3)[nH]1` [Compound 4.28, N-(5-((1R,3s,5S)-3-(7-amino-6-cyclopropyl-3-(6-phenylpyridin-3-yl)pyrazolo[1,5-a]pyrimidin-5-yl)-8-azabicyclo[3.2.1]octane-8-carbonyl)-4H-1,2,4-triazol-3-yl)acetamide], the IC50 in assay [1] (setting [3]) and in assay [2] (setting [3]) was 100 to 1000 nM in each case.

On to `CC(=O)c1c(C2CC3CCC(C2)N3C(=O)c2nnc(C)[nH]2)nc2c(-c3ccc(-c4ccccc4)nc3)cnn2c1N` [Compound 1.1.22, 1-(7-amino-5-((1R,3s,5S)-8-(3-methyl-1H-1,2,4-triazole-5-carbonyl)-8-azabicyclo[3.2.1]octan-3-yl)-3-(6-phenylpyridin-3-yl)pyrazolo[1,5-a]pyrimidin-6-yl)ethanone], for which the IC50 in assay [1] (setting [3]) and in assay [2] (setting [3]) was 1 to 100 nM in each case.

In the case of `Nc1c(C2CC2)c([C@@H]2C[C@H]3CC[C@@H](C2)N3C(=O)c2nnc[nH]2)nc2c(-c3cnc4c(c3)OCc3cn[nH]c3-4)cnn12` [Compound 8.55], the IC50 in assay [1] (PC-3, PC3 cells) lay within 1000 to 10000 nM; in assay [2] (PC-3, PC3 cells), 1000 to 10000 nM.

On to `CC(=O)c1c([C@@H]2C[C@H]3CC[C@@H](C2)N3C(=O)CNS(C)(=O)=O)nc2c(-c3ccc(-c4ccccc4)nc3)cnn2c1N` [Compound 1.1.23, N-(2-((1R,3s,5S)-3-(6-acetyl-7-amino-3-(6-phenylpyridin-3-yl)pyrazolo[1,5-a]pyrimidin-5-yl)-8-azabicyclo[3.2.1]octan-8-yl)-2-oxoethyl)methanesulfonamide], for which the IC50 in assay [1] (setting [3]) and in assay [2] (setting [3]) was 100 to 1000 nM in each case.

Regarding `COc1ccc(-c2ccc(-c3cnn4c(N)c(C(C)=O)c([C@@H]5C[C@H]6CC[C@@H](C5)N6C(=O)C(C)(CO)CO)nc34)cn2)cc1F` [Compound 1.1.59, 1-((1R,3s,5S)-3-(6-acetyl-7-amino-3-(6-(3-fluoro-4-methoxyphenyl)pyridin-3-yl)pyrazolo[1,5-a]pyrimidin-5-yl)-8-azabicyclo[3.2.1]octan-8-yl)-3-hydroxy-2-(hydroxymethyl)-2-methylpropan-1-one], the IC50 in assay [1] (setting [3]) and in assay [2] (setting [3]) was 1 to 100 nM each time.

Turning to `CC(=O)c1c([C@@H]2C[C@H]3CC[C@@H](C2)N3C(=O)c2nnc[nH]2)nc2c(-c3cnn(-c4ccccn4)c3)cnn2c1N` [Compound 1.1.161, 1-(5-((1R,3s,5S)-8-(4H-1,2,4-triazole-3-carbonyl)-8-azabicyclo[3.2.1]octan-3-yl)-7-amino-3-(1-(pyridin-2-yl)-1H-pyrazol-4-yl)pyrazolo[1,5-a]pyrimidin-6-yl)ethanone], the IC50 in assay [1] (setting [3]) and in assay [2] (setting [3]) was 100 to 1000 nM throughout.

On to `Cc1nnc(C(=O)N2[C@@H]3CC[C@H]2C[C@H](c2nc4c(-c5cn[nH]c5)cnn4c(N)c2S(C)(=O)=O)C3)[nH]1` [Compound 3.115, ((1R,3s,5S)-3-(7-amino-6-(methylsulfonyl)-3-(1H-pyrazol-4-yl)pyrazolo[1,5-a]pyrimidin-5-yl)-8-azabicyclo[3.2.1]octan-8-yl)(5-methyl-4H-1,2,4-triazol-3-yl)methanone], for which the IC50 was more than 10000 nM in assay [1] (PC-3, Table 3-1, PC3 cells) and more than 10000 nM in assay [2] (PC-3, Table 3-1, PC3 cells).

Turning to `CC(=O)c1c([C@@H]2C[C@H]3CC[C@@H](C2)N3C(=O)c2nnc[nH]2)nc2c(-c3ccc(-c4cc[nH]n4)nc3)cnn2c1N` [Compound 1.1.74, 1-(3-(6-(1H-pyrazol-3-yl)pyridin-3-yl)-5-((1R,3s,5S)-8-(4H-1,2,4-triazole-3-carbonyl)-8-azabicyclo[3.2.1]octan-3-yl)-7-aminopyrazolo[1,5-a]pyrimidin-6-yl)ethanone], the IC50 in assay [1] (setting [3]) and in assay [2] (setting [3]) was 1 to 100 nM in each case.

Take `CC(=O)c1c([C@@H]2C[C@H]3CC[C@@H](C2)N3C(=O)CO)nc2c(-c3ccc(-c4cc(F)cc(F)c4)nc3)cnn2c1N` [Compound 1.1.101, 1-((1R,3r,5S)-3-(6-acetyl-7-amino-3-(6-(3,5-difluorophenyl)pyridin-3-yl)pyrazolo[1,5-a]pyrimidin-5-yl)-8-azabicyclo[3.2.1]octan-8-yl)-2-hydroxyethanone]: the IC50 in assay [1] (setting [3]) and in assay [2] (setting [3]) was 100 to 1000 nM in each case.

Consider `COc1ccc(-c2ccc(-c3cnn4c(N)c(S(C)(=O)=O)c([C@@H]5C[C@H]6CC[C@@H](C5)N6C(=O)c5nnc[nH]5)nc34)cn2)c(F)c1F` [Compound 3.54, ((1R,3s,5S)-3-(7-amino-3-(6-(2,3-difluoro-4-methoxyphenyl)pyridin-3-yl)-6-(methylsulfonyl)pyrazolo[1,5-a]pyrimidin-5-yl)-8-azabicyclo[3.2.1]octan-8-yl)(4H-1,2,4-triazol-3-yl)methanone], for which the IC50 lay in the range of 1 to 100 nM in assay [1] (PC-3, Table 3-1, PC3 cells) and 1 to 100 nM in assay [2] (PC-3, Table 3-1, PC3 cells).

In the case of `CC(=O)c1c([C@@H]2C[C@H]3CC[C@@H](C2)N3C(=O)c2nnc[nH]2)nc2c(-c3cnc(-c4ccn(C)n4)c(C)c3)cnn2c1N` [Compound 1.1.114, 1-(5-((1R,3s,5S)-8-(4H-1,2,4-triazole-3-carbonyl)-8-azabicyclo[3.2.1]octan-3-yl)-7-amino-3-(5-methyl-6-(1-methyl-1H-pyrazol-3-yl)pyridin-3-yl)pyrazolo[1,5-a]pyrimidin-6-yl)ethanone], the IC50 in assay [1] (setting [3]) and in assay [2] (setting [3]) was 1000 to 10000 nM throughout.

`CCCS(=O)(=O)c1c([C@@H]2C[C@H]3CC[C@@H](C2)N3C(=O)c2nnc[nH]2)nc2c(-c3ccc(-c4ccccc4)nc3)cnn2c1N` [Compound 3.162, ((1R,3s,5S)-3-(7-amino-3-(6-phenylpyridin-3-yl)-6-(propylsulfonyl)pyrazolo[1,5-a]pyrimidin-5-yl)-8-azabicyclo[3.2.1]octan-8-yl)(4H-1,2,4-triazol-3-yl)methanone]: the IC50 in assay [1] (PC-3, Table 3-1, PC3 cells) lay in the range of 100 to 1000 nM; in assay [2] (PC-3, Table 3-1, PC3 cells), 100 to 1000 nM.

`C[C@H](O)C(=O)N1[C@@H]2CC[C@H]1C[C@H](c1nc3c(-c4ccc(-c5ccccc5)nc4)cnn3c(N)c1S(C)(=O)=O)C2` [Compound 3.27]: the IC50 lay in the range of 100 to 1000 nM in assay [1] (PC-3, Table 3-1, PC3 cells) and 100 to 1000 nM in assay [2] (PC-3, Table 3-1, PC3 cells).

For the compound `Nc1c(C2CC2)c(C2CC3CCC(C2)N3C(=O)c2nnc(O)[nH]2)nc2c(-c3ccc(-c4ccccc4)nc3)cnn12` [Compound 8.106, ((1R,3s,5S)-3-(7-amino-6-cyclopropyl-3-(6-phenylpyridin-3-yl)pyrazolo[1,5-a]pyrimidin-5-yl)-8-azabicyclo[3.2.1]octan-8-yl)(5-hydroxy-4H-1,2,4-triazol-3-yl)methanone], the IC50 fell in the range of 1 to 100 nM in assay [1] (PC-3, PC3 cells) and 1 to 100 nM in assay [2] (PC-3, PC3 cells).

Regarding `CC(=O)c1c([C@@H]2C[C@H]3CC[C@@H](C2)N3C(N)=O)nc2c(-c3ccc(-c4ccc(F)cc4)nc3)cnn2c1N` [Compound 1.11..170, (1R,3s,5S)-3-(6-acetyl-7-amino-3-(6-(4-fluorophenyl)pyridin-3-yl)pyrazolo[1,5-a]pyrimidin-5-yl)-8-azabicyclo[3.2.1]octane-8-carboxamide], the IC50 in assay [1] (setting [3]) and in assay [2] (setting [3]) was 1 to 100 nM each time.

For the compound `CS(=O)(=O)c1c([C@@H]2C[C@H]3CC[C@@H](C2)N3C(=O)CO)nc2c(-c3cnc(-c4ccccc4)c(O)c3)cnn2c1N` [Compound 3.23, 1-((1R,3s,5S)-3-(7-amino-3-(5-hydroxy-6-phenylpyridin-3-yl)-6-(methylsulfonyl)pyrazolo[1,5-a]pyrimidin-5-yl)-8-azabicyclo[3.2.1]octan-8-yl)-2-hydroxyethanone], the IC50 in assay [1] (PC-3, Table 3-1, PC3 cells) lay in the range of 1000 to 10000 nM; in assay [2] (PC-3, Table 3-1, PC3 cells), 1000 to 10000 nM.

These data come from patent US9227971B2, “Pyrazolo[1,5-a]pyrimidine compounds as mTOR inhibitors” (Merck Sharp & Dohme Corp., priority 2010, dated 2016).
